Laboratory results reported in patent US8058295B2, “Cystic fibrosis transmembrane conductance regulator protein inhibitors and uses thereof” (The Regents of the University of California, priority 2002, dated 2011).
Like-named read-outs stand apart in the source and are kept apart here.

Tests used:
[1] = tested on: Volume-sensitive Cl^− channels; assay: Volume-activated Cl^− current, whole-cell patch clamp in FRT cells; type: cell-based, rat; conditions: 5 μM; 250 mosM/kg hypotonic solution
Text: FIG. 4B is a graphical representation of volume-activated Cl^− current (hypotonic 250 mosM/kg H2O) measured in whole-cell patch clamp experiments on FRT cells.

[2] = target: T1, ATP-sensitive K^+ channels (Rattus norvegicus, UniProt Q09429); assay: Membrane potential recording in INS-1 pancreatic β cells (K-ATP channels); type: cell-based
T1 construct: endogenous in cells; host or cells: INS-1 rat pancreatic β cell line
T1 sequence (Q09429 whole entry): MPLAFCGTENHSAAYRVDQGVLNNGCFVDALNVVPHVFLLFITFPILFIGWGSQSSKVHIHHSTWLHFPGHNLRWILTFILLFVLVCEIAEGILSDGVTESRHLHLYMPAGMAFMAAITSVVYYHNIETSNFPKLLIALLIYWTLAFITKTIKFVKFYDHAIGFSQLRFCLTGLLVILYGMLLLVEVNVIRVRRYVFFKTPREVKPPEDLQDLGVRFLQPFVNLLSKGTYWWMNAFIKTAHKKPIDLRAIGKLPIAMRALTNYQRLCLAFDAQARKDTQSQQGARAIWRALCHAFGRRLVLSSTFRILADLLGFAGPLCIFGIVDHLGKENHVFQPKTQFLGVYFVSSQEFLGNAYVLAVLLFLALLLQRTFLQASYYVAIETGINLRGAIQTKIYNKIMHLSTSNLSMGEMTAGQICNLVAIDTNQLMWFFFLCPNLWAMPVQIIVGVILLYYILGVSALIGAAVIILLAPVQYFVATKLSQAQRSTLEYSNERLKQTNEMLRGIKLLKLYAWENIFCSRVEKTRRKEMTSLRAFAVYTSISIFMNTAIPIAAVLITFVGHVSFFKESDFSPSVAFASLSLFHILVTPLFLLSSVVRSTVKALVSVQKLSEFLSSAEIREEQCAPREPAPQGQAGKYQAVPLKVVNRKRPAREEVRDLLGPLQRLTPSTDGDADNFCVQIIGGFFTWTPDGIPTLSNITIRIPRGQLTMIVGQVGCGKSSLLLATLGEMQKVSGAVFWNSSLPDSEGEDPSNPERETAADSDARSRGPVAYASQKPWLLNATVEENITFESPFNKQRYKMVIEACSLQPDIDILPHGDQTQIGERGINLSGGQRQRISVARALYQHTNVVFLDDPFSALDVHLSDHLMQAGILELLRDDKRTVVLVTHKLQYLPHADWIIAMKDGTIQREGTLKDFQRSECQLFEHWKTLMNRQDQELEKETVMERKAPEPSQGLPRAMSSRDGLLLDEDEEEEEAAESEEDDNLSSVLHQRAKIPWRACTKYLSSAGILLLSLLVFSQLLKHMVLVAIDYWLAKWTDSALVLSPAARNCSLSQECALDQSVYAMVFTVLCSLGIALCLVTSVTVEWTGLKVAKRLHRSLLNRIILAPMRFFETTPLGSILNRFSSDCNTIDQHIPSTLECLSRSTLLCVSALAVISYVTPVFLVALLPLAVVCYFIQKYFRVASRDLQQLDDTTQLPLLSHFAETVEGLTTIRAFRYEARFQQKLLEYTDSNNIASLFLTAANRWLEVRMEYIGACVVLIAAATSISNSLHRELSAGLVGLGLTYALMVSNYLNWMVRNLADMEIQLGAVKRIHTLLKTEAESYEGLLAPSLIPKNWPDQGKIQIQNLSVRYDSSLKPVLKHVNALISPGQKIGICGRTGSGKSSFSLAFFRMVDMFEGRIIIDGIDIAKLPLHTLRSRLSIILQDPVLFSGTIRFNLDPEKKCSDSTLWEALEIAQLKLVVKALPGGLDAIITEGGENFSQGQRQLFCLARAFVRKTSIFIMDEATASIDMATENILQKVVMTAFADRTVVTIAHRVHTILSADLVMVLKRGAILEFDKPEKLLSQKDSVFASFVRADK
T1 sequence (P70673 whole entry partner): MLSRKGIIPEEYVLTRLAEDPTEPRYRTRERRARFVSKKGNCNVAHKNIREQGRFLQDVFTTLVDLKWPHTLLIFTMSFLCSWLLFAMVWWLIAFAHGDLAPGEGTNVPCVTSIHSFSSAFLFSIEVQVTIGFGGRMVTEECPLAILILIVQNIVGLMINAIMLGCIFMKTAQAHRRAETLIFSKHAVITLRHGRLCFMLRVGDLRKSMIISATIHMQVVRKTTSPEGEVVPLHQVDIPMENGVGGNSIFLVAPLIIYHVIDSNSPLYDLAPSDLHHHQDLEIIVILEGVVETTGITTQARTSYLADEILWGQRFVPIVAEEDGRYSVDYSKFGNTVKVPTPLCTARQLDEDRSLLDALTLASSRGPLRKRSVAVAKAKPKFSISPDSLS

urea transporter (UT-B) = target: T2, urea transporter (UT-B) (Homo sapiens, UniProt Q13336); assay: Urea transporter block; conditions: 5 μM
T2 sequence (Q13336 1-389): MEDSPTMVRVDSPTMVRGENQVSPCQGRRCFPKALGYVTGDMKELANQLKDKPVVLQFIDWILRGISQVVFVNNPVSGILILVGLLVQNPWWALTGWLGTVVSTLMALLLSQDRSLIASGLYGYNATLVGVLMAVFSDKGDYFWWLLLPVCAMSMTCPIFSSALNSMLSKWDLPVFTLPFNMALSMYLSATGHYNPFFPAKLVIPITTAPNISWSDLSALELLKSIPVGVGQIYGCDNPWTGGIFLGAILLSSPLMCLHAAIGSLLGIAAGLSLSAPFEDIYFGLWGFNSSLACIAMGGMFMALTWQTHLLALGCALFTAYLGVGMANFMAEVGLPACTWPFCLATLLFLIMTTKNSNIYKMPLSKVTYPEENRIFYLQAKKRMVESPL

[3] = target: T3, Na^+/H^+ exchanger (NHE3) (Homo sapiens, UniProt P48764); assay: Na^+/H^+ exchanger block; conditions: 5 μM
T3 sequence (P48764 26-834): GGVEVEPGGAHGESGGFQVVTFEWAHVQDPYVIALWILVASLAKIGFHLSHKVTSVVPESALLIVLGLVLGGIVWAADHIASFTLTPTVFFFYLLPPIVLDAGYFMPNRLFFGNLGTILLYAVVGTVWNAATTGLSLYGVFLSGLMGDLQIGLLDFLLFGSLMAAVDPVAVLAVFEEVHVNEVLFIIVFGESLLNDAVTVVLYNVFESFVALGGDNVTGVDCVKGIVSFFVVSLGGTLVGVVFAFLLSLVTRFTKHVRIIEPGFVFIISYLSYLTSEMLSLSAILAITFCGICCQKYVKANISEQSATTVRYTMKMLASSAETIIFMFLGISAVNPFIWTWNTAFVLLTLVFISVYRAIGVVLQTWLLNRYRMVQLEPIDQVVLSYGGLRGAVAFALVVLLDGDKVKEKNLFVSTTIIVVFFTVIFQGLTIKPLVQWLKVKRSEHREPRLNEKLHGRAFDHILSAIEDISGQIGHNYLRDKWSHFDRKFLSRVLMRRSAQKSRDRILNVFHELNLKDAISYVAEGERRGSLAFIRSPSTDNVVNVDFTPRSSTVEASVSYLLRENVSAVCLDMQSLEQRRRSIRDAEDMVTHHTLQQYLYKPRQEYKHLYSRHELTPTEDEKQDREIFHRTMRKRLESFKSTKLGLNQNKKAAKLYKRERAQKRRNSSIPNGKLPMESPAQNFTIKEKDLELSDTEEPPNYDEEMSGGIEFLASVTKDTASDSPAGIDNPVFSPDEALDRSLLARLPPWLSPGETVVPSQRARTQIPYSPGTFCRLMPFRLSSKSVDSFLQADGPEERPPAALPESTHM

[4] = Tissue distribution and elimination in mice after intravenous bolus; type: in vivo
Experimental: A bolus of ^14C-CFTRinh-172 (2 μCi) was administered intravenously over 1 min in mice (male CD1 mice, 30-35 grams) by tail vein. Mice were sacrificed at 5, 30, 120 and 240 min. Organs were removed, weighed and homogenized in distilled water (10-50 vol %). Radioactivity was determined by scintillation counting of the homogenates (25-50 μL) and expressed as total ^14C-radioactivity per organ (or per gram tissue for skeletal muscle). At the same time blood, urine and bile (from gallbladder or duodenum) were collected and ^14C-radioactivity was measured and expressed per mL of fluid. Elimination studies were done by collections of urine and stool over the first 24 hr after ^14C-CFTRinh-172 administration. Tissue distribution studies were also done on rats prepared as for pharmacokinetic studies.

[5] = Analysis of inhibitor metabolism by thin layer chromatography and autoradiography; type: in vivo, mice; conditions: urine, serum, bile, liver homogenate; TLC autoradiography
Text: Film was exposed for autoradiography for 48 hr (left panel) and 12 hr (right panel).
Aliquots of bodily fluids (plasma, urine, bile) and liver homogenate were spotted onto Silica plates and resolved by thin layer chromatography using a ethyl acetate:hexane:methanol (1:1:0.1) solvent system which gave rf ˜0.5 for the original inhibitor.

[6] = pKa by spectrophotometric pH titration; type: physicochemical
[7] = Caco-2 permeability assay; type: in vitro ADME; conditions: human, pH 7.3, Caco-2 monolayers, read-out: permeability coefficient (Papp)
Experimental: Caco-2 cells were cultured on porous inserts to give monolayer resistances of […]. For transport studies culture medium was replaced with an equal volume of Hank's buffered salt solution (HBSS) containing 15 mM glucose and 25 mM HEPES (pH 7.3).

[8] = tested on: cholera toxin-induced fluid secretion; design: species or system rats; conditions: in vivo
CFTR [9] = target: T4, CFTR (Homo sapiens, UniProt P13569)
T4 sequence (P13569 whole entry): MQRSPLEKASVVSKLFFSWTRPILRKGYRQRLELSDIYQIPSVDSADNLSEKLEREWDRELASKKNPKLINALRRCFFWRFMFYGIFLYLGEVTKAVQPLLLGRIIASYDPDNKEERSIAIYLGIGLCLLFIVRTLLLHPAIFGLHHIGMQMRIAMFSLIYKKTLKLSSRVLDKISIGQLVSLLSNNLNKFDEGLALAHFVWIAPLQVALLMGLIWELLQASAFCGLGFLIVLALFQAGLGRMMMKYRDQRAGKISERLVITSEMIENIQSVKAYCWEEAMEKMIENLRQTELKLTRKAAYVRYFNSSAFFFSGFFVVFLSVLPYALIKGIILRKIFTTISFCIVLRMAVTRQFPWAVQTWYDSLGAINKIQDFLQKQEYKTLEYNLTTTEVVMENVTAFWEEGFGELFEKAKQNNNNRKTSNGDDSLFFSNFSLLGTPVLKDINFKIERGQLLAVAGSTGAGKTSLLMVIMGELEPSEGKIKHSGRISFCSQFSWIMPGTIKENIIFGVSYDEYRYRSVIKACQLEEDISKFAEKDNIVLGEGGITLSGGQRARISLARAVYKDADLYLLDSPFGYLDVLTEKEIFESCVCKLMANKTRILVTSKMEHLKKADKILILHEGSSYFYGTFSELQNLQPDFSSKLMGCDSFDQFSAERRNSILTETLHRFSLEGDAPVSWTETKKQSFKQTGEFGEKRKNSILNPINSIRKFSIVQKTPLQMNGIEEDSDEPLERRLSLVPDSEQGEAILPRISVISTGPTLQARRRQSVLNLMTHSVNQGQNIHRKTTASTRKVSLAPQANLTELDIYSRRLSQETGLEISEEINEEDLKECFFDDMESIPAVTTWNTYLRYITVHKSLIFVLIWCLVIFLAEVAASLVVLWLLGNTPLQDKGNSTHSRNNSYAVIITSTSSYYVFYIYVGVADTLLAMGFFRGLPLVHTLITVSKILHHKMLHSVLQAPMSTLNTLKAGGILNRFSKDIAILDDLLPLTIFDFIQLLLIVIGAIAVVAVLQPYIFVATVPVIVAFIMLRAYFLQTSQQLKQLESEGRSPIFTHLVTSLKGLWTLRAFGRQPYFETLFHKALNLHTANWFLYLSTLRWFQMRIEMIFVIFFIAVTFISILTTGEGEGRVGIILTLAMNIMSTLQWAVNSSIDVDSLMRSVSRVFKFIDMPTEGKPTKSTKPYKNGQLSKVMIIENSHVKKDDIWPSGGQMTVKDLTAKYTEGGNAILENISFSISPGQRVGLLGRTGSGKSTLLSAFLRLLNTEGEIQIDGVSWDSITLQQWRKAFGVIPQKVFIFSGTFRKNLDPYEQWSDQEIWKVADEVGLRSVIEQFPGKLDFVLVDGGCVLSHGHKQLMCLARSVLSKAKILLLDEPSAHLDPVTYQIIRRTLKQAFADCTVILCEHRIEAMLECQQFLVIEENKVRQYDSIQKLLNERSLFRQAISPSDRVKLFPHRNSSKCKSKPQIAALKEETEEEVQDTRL

wildtype CFTR = wildtype CFTR (Homo sapiens, UniProt P13569); assay: Short-circuit current in primary culture of human bronchial epithelial cells; type: cell-based; design: cells that natively express wildtype CFTR; endogenous in cells; host or cells: primary human bronchial epithelial cells
Chain of wildtype CFTR (P13569 whole entry): as above

CFTR [10] = target: T4, CFTR; assay: Electrophysiological studies in Calu-3 cells; type: cell-based; design: cells that natively express wildtype CFTR, including T84 cells; endogenous in cells; host or cells: T84 colonic epithelial cells (UCSF cell culture facility); conditions: read-out: apparent potency in electrophysiological studies

In the case of `O=C(O)c1ccc(/C=C2\SC(=S)N(c3cccc(C(F)(F)F)c3)C2=O)cc1` [CFTRinh-172, 3-[(3-trifluoromethyl)phenyl]-5-[(4-carboxyphenyl)methylene]-2-thioxo-4-thiazolidinone], the “block of volume-activated Cl^− currents” value [1] is reported as “did not block”, the “effect on membrane potential” value ([2]; 5 μM) is reported as “small hyperpolarization” and the “effect on membrane potential” value ([2]; 2 and 5 μM) is reported as “did not depolarize membrane potential”. The “block of urea transporter (UT-B)” value (urea transporter (UT-B)) was “did not block”, the “block of Na^+/H^+ exchanger (NHE3)” value [3] was “did not block” and the “ratio of ^14C radioactivity in urine-to-blood” value ([4]; mice) was 5-7. For the same compound, the average urine radioactivity ([4]; mice, first 2 hours after infusion) was 4.2±1.2×10^5 cpm/mL, the “^14C radioactivity in brain, heart, skeletal muscle or testes” value ([4]; mice, i.v. bolus) was “Little radioactivity” and the “organ distribution of ^14C radioactivity” value ([4]; mice, later times (30-240 min)) was “accumulated in the intestine”. The “excreted radioactivity found in the urine” value ([4]; mice, urine and stool over first 24 hr) was 93±3%, the “organ distribution of ^14C radioactivity” value ([4]; mice, within 5 min after i.v. infusion) was “primarily in liver and kidney” and the “concentration of ^14C radioactivity in bile vs. blood” value ([4]; mouse, in vivo) was about 9 fold. For the same compound, the “accumulation in other vital organs including heart, lung, skeletal muscle and testes” value ([4]; rodents) was “little CFTRinh-172 accumulation”, the blood-brain barrier penetration ([4]; rodents) was “did not significantly cross the blood-brain barrier” and the “chemical modification (metabolism)” value [5] was “did not occur”. For the same compound, the “fraction present as the unionized acid” value ([6]; physiological pH) was about 1%, the pKa ([6]; spectrophotometric pH titration) was 5.5 and the Papp A→B at 25 μM [7] was 16 ×10⁻⁶ cm/s. The “cholera-toxin induced fluid secretion in rat intestinal loops” value [8] was “prevented cholera-toxin induced fluid secretion”, the IC50 (CFTR [9]) was 200 to 500 nM and the Kd (CFTR [9]) was about 300 nM. For the same compound, the Hill coefficient (CFTR [9]; dose-inhibition of short-circuit current) was about 1, the “inhibition of short-circuit current” value (wildtype CFTR; added from the basolateral side) was “inhibited short-circuit current” and the “inhibition of short-circuit current” value (wildtype CFTR; apical side, amiloride, after CPT-cAMP activation) was “inhibited short-circuit current strongly”. The IC50 (CFTR [10]) was 500 nM.
